Among the data in ChEMBL document CHEMBL3046469, “Fungicidal Activities of 2-(Substituted Phenoxymethyl)phenyl-2-methoxyiminoacaetamide Derivatives” (1998) are Activity values, retold here.

Bounds are passed on as bounds.

What all share (type): functional
For assay [1], the system named is Pseudoperonospora cubensis. Briefly: Fungicidal activity against Pseudoperonospora cubensis assessed as cucumber downy mildew disease control at 31.3 ppm foliar application 24 hr before inoculation onto the abaxial(untreated) surface of leaf by preventive manner.
Assay [2] has as its system Pyricularia oryzae. Briefly: Fungicidal activity against Magnaporthe oryzae assessed as rice blast disease control at 31.3 ppm foliar application for 24 hr before inoculation at 27 +/- 2 degC measured after 5 days by preventive manner.
Assay [3] has as its system Pseudoperonospora cubensis. Kind of assay: Fungicidal activity against Pseudoperonospora cubensis assessed as cucumber downy mildew disease control at 7.8 ppm foliar application 24 hr before inoculation onto the adaxial(treated) surface of leaf by preventive manner.
The test system of assay [4] is Thanatephorus cucumeris. Kind of assay: Fungicidal activity against Thanatephorus cucumeris assessed as rice sheath blight disease control at 125 ppm foliar application for 24 hr before inoculation at 26 +/- 2 degC measured after 5 days by preventive manner.
The test system of assay [5] is Botrytis cinerea. Briefly: Fungicidal activity against Botryotinia fuckeliana assessed as cucumber gray mold disease control at 2 ppm foliar application […] at 22 +/- 2 degC by preventive manner.
The subject of assay [6] is Podosphaera fuliginea. Kind of assay: Fungicidal activity against Podosphaera fuliginea assessed as cucumber powdery mildew control at 2 ppm foliar application 24 hr before inoculation at 23 +/- 2 degC by preventive manner.
Assay [7] has as its system Blumeria graminis f. sp. tritici. Kind of assay: Fungicidal activity against Blumeria graminis f. sp. tritici assessed as wheat powdery mildew disease control at 2 ppm foliar application for 48 hr before inoculation by preventive manner.
For assay [8] the test system is unchanged. Briefly: Fungicidal activity against Blumeria graminis f. sp. tritici assessed as wheat powdery mildew disease control at 7.8 ppm foliar application 48 24 hr before inoculation by preventive manner.
In assay [9] the test system is Pseudoperonospora cubensis. Briefly: Fungicidal activity against Pseudoperonospora cubensis assessed as cucumber downy mildew disease control at 7.8 ppm foliar application 24 hr before inoculation onto the abaxial(untreated) surface of leaf by preventive manner.
The test system of assay [10] is Pseudoperonospora cubensis. Briefly: Fungicidal activity against Pseudoperonospora cubensis assessed as cucumber downy mildew disease control at 2 ppm foliar application 24 hr before inoculation onto the adaxial(treated) surface of leaf by preventive manner.
Assay [11] deals with Pyricularia oryzae. Briefly: Fungicidal activity against Magnaporthe oryzae assessed as rice blast disease control at 2 ppm foliar application for 24 hr before inoculation at 27 +/- 2 degC measured after 5 days by preventive manner.
The test system of assay [12] is Thanatephorus cucumeris. Kind of assay: Fungicidal activity against Thanatephorus cucumeris assessed as rice sheath blight disease control at 31.3 ppm foliar application for 24 hr before inoculation at 26 +/- 2 degC measured after 5 days by preventive manner.
In assay [13] the test system is Botrytis cinerea. Kind of assay: Fungicidal activity against Botryotinia fuckeliana assessed as cucumber gray mold disease control at 125 ppm foliar application […] at 22 +/- 2 degC by preventive manner.
In assay [14] the test system is Pyricularia oryzae. Briefly: Fungicidal activity against Magnaporthe oryzae assessed as rice blast disease control at 125 ppm foliar application for 24 hr after inoculation at 27 +/- 2 degC measured after 5 days by curative manner.
Assay [15] deals with Podosphaera fuliginea. Kind of assay: Fungicidal activity against Podosphaera fuliginea assessed as cucumber powdery mildew control at 125 ppm foliar application 24 hr before inoculation at 23 +/- 2 degC by preventive manner.
Assay [16] concerns Botrytis cinerea. Briefly: Fungicidal activity against Botryotinia fuckeliana assessed as cucumber gray mold disease control at 125 ppm foliar application […] at 22 +/- 2 degC by curative manner.
The test system of assay [17] is Pyricularia oryzae. Kind of assay: Fungicidal activity against Magnaporthe oryzae assessed as rice blast disease control at 125 ppm foliar application for 24 hr before inoculation at 27 +/- 2 degC measured after 5 days by preventive manner.
Assay [18] deals with Podosphaera fuliginea. Kind of assay: Fungicidal activity against Podosphaera fuliginea assessed as cucumber powdery mildew control at 7.8 ppm foliar application 24 hr after inoculation at 23 +/- 2 degC by curative manner.
The subject of assay [19] is Thanatephorus cucumeris. Kind of assay: Fungicidal activity against Thanatephorus cucumeris assessed as rice sheath blight disease control at 7.8 ppm foliar application for 24 hr before inoculation at 26 +/- 2 degC measured after 5 days by preventive manner.
For assay [20], the system named is Pseudoperonospora cubensis. Kind of assay: Fungicidal activity against Pseudoperonospora cubensis assessed as cucumber downy mildew disease control at 125 ppm foliar application 24 hr before inoculation onto the abaxial(untreated) surface of leaf by preventive manner.
Assay [21] concerns Pyricularia oryzae. Kind of assay: Fungicidal activity against Magnaporthe oryzae assessed as rice blast disease control at 7.8 ppm foliar application for 24 hr before inoculation at 27 +/- 2 degC measured after 5 days by preventive manner.
Assay [22] deals with Botrytis cinerea. Briefly: Fungicidal activity against Botryotinia fuckeliana assessed as cucumber gray mold disease control at 7.8 ppm foliar application […] at 22 +/- 2 degC by curative manner.
In assay [23] the test system is Podosphaera fuliginea. Kind of assay: Fungicidal activity against Podosphaera fuliginea assessed as cucumber powdery mildew control at 7.8 ppm foliar application 24 hr before inoculation at 23 +/- 2 degC by preventive manner.
The subject of assay [24] is Botrytis cinerea. Kind of assay: Fungicidal activity against Botryotinia fuckeliana assessed as cucumber gray mold disease control at 7.8 ppm foliar application […] at 22 +/- 2 degC by preventive manner.
The subject of assay [25] is Blumeria graminis f. sp. tritici. Kind of assay: Fungicidal activity against Blumeria graminis f. sp. tritici assessed as wheat powdery mildew disease control at 7.8 ppm foliar application 48 hr after inoculation by curative manner.
Assay [26] concerns Pyricularia oryzae. Kind of assay: Fungicidal activity against Magnaporthe oryzae assessed as rice blast disease control at 7.8 ppm foliar application for 24 hr after inoculation at 27 +/- 2 degC measured after 5 days by curative manner.
In assay [27] the test system is Blumeria graminis f. sp. tritici. Kind of assay: Fungicidal activity against Blumeria graminis f. sp. tritici assessed as wheat powdery mildew disease control at 125 ppm foliar application for 48 hr after inoculation by curative manner.
Assay [28] concerns Podosphaera fuliginea. Kind of assay: Fungicidal activity against Podosphaera fuliginea assessed as cucumber powdery mildew control at 125 ppm foliar application 24 hr after inoculation at 23 +/- 2 degC by curative manner.
For assay [29], the system named is Blumeria graminis f. sp. tritici. Kind of assay: Fungicidal activity against Blumeria graminis f. sp. tritici assessed as wheat powdery mildew disease control at 125 ppm foliar application for 48 hr before inoculation by preventive manner.
The test system of assay [30] is Botrytis cinerea. Briefly: Fungicidal activity against Botryotinia fuckeliana assessed as cucumber gray mold disease control at 31.3 ppm foliar application […] at 22 +/- 2 degC by preventive manner.
The subject of assay [31] is Podosphaera fuliginea. Kind of assay: Fungicidal activity against Podosphaera fuliginea assessed as cucumber powdery mildew control at 31.3 ppm foliar application 24 hr before inoculation at 23 +/- 2 degC by preventive manner.
The test system of assay [32] is Botrytis cinerea. Briefly: Fungicidal activity against Botryotinia fuckeliana assessed as cucumber gray mold disease control at 2 ppm foliar application […] at 22 +/- 2 degC by curative manner.
Assay [33] deals with Blumeria graminis f. sp. tritici. Kind of assay: Fungicidal activity against Blumeria graminis f. sp. tritici assessed as wheat powdery mildew disease control at 2 ppm foliar application for 48 hr after inoculation by curative manner.
Assay [34] deals with Podosphaera fuliginea. Briefly: Fungicidal activity against Podosphaera fuliginea assessed as cucumber powdery mildew control at 2 ppm foliar application 24 hr after inoculation at 23 +/- 2 degC by curative manner.

As to `CNC(=O)/C(=N/OC)c1ccccc1COc1ccc(Cl)cc1Cl`, the Activity in [1] was 90%; in assay [2] it was 90%; in [3], 90%; in assay [4] it was less than 90%; in [5] it was 90%; in [6] it was 90%. Moreover, the Activity in [7] turned out to be 90%.
For `CNC(=O)/C(=N/OC)c1ccccc1COc1cccc(-c2ccccc2)c1`, the Activity in [8], in [9], in assay [10], in assay [11], in assay [5] and in [6] was 90% each time. Further, the Activity in assay [12] was 90%.
For the compound `CO/N=C(/C(=O)NOC)c1ccccc1COc1cc(C)ccc1C`, the Activity in assay [13] is reported as 90%; in assay [14], less than 90%; in assay [15], less than 90%; in assay [16], less than 90%; in assay [17], 90%; in [18], 90%.
In the case of `CNC(=O)/C(=N/OC)c1ccccc1COc1cc(C)cc(C)c1C`, the Activity in assay [10], in assay [19], in assay [20], in [21], in assay [5] and in assay [6] was 90% each time. In addition, the Activity in assay [7] is recorded as 90%.
Take `CNC(=O)/C(=N/OC)c1ccccc1COc1cccc(OC(C)C)c1`: the Activity in [1], in assay [22], in assay [23], in assay [3], in [21] and in assay [4] was 90% in each case. Besides, the Activity in assay [24], in assay [25], in [26], in [18] and in assay [7] was 90% throughout.
For `CNC(=O)/C(=N/OC)c1ccccc1COc1ccc(C)cc1C`, the Activity in [10], in assay [23], in assay [19], in assay [20], in [5] and in [17] was 90% each time. In addition, the Activity in assay [7] amounted to 90%.
With `CNC(=O)/C(=N\OC)c1ccccc1COc1ccccc1`, the Activity is on record as less than 90% in assay [13]; less than 90% in [27]; less than 90% in assay [14]; 90% in assay [15]; less than 90% in assay [16]; less than 90% in assay [17]. Besides, the Activity is recorded as less than 90% in assay [28] and 90% in assay [29].
Regarding `CO/N=C(/C(=O)NN)c1ccccc1COc1cc(C)ccc1C`, the Activity was less than 90% in assay [13]; less than 90% in [14]; 90% in assay [15]; 90% in assay [17]; less than 90% in assay [28].
Turning to `CNC(=O)/C(=N/OC)c1ccccc1COc1ccc(Cl)cc1C`, the Activity in assay [9], in [10], in assay [21], in [5], in assay [6] and in assay [12] was 90% in each case. The Activity in assay [7] came to 90%.
As to `CNC(=O)/C(=N/OC)c1ccccc1COc1ccccc1C(F)(F)F`, the Activity in assay [23], in assay [19], in [20], in assay [3], in assay [30] and in assay [11] was 90% throughout. In addition, the Activity in assay [7] was determined as 90%.
On to `CNC(=O)/C(=N\OC)c1ccccc1COc1cccc(OC(C)C)c1`, for which the Activity is on record as 90% in assay [13]; 90% in [27]; less than 90% in [14]; less than 90% in [16]; 90% in assay [17]; 90% in assay [31]. For the same compound, the Activity in [28] is recorded as 90%; in assay [29] it was less than 90%.
Turning to `CO/N=C(/C(=O)N(C)C)c1ccccc1COc1cc(C)ccc1C`, the Activity was 90% in assay [13]; 90% in [14]; less than 90% in assay [16]; 90% in [2]; 90% in assay [31]; 90% in assay [18].
As for `CO/N=C(/C(N)=O)c1ccccc1COc1cc(C)ccc1C`, the Activity in assay [22], in [2], in [30], in assay [6], in [26] and in [18] was 90% in each case.
Consider `CNC(=O)/C(=N/OC)c1ccccc1COc1ccc(Cl)cc1`, for which the Activity in assay [32] is recorded as 90%; in assay [9] it was 90%; in assay [10], 90%; in assay [2], 90%; in [4], less than 90%; in assay [24], 90%. Also, the Activity in assay [6], in assay [33], in [26], in assay [34] and in [7] was 90% each time.
In the case of `CNC(=O)/C(=N\OC)c1ccccc1COc1cc(C)ccc1C`, the Activity in assay [14], in [22], in [23], in [2], in assay [24] and in assay [25] was 90% in each case. Moreover, the Activity in assay [18] and in [7] was 90% each time.
For the compound `CNC(=O)/C(=N\OC)c1ccccc1COc1ccc(Cl)cc1`, the Activity is listed as less than 90% in assay [13]; less than 90% in assay [27]; less than 90% in assay [14]; 90% in assay [15]; less than 90% in [16]; less than 90% in [17]. For the same compound, the results for the Activity in assay [28] and in assay [29] were less than 90% and 90%, respectively.
In the case of `CNC(=O)/C(=N\OC)c1ccccc1COc1ccc(-c2ccccc2)cc1`, the Activity is recorded as less than 90% in [13]; 90% in [27]; less than 90% in assay [14]; less than 90% in assay [16]; less than 90% in assay [17]; 90% in [31]. The Activity in assay [28] and in assay [29] was less than 90% throughout.
